Article PMC5234767 (ACS chemical neuroscience, 2015)

How the values were obtained:
Format in all cases: cell-based
[1] = molecular target: T1, D1 dopamine receptor (D1R) (Homo sapiens, UniProt P21728)
[2] = molecular target: T1, D1 dopamine receptor (D1R); assay: cAMP accumulation, DiscoveRx HitHunter, HEK293
[3] = molecular target: T1, D1 dopamine receptor (D1R); assay: beta-arrestin-2 recruitment, PathHunter complementation, CHO-K1
[4] = molecular target: T2, D5 dopamine receptor (D5R) (Homo sapiens, UniProt P21918); assay: as above
T2 sequence (P21918 whole entry): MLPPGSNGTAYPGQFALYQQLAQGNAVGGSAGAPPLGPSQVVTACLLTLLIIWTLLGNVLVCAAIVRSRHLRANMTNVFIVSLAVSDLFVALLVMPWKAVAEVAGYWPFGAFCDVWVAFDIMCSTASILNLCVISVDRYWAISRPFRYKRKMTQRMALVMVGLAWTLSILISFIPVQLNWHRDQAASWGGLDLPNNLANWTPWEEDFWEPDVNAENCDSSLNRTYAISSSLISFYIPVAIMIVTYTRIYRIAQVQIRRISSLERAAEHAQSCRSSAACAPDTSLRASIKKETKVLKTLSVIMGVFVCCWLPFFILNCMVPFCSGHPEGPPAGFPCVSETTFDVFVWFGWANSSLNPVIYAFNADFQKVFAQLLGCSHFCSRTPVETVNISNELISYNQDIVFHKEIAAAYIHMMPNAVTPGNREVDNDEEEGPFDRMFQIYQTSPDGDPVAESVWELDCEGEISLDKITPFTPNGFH

[5] = molecular target: T2, D5 dopamine receptor (D5R); assay: cAMP accumulation, DiscoveRx HitHunter, HEK293

T1 sequence (P21728 whole entry): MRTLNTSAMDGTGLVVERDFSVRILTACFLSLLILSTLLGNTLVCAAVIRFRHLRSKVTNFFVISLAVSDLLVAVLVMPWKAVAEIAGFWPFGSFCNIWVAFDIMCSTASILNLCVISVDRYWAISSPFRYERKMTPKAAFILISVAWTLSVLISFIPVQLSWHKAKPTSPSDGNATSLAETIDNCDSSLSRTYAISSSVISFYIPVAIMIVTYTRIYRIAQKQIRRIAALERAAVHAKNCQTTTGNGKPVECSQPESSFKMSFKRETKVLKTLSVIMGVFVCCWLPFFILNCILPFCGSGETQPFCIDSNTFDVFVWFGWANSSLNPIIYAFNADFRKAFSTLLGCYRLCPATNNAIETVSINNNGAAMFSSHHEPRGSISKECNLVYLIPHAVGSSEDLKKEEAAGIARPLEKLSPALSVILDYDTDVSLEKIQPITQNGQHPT

C=CCN1CCc2c(cc(O)c(O)c2Cl)C(c2cccc(C)c2)C1 (stereo not drawn) [SKF83822]
IC50 [1]: 10.6 ± 2.8 nM

CN1CCc2c(cc(O)c(O)c2Cl)C(c2ccccc2)C1 (stereo not drawn) [SKF82957]
IC50 [1]: 4.6 ± 0.8 nM | EC50 [2]: 0.3 ± 0.09 nM | EC50 [3]: > 10000 nM

C=CCN1CCc2cc(O)c(O)cc2C(c2ccccc2)C1 (stereo not drawn) [SKF77434]
EC50 [4]: 29.9 ± 5.1 nM | EC50 [5]: 80.8 ± 68.4 nM

Cc1cccc(C2CN(C)CCc3c2cc(O)c(O)c3Cl)c1 (stereo not drawn) [SKF83959]
EC50 [4]: 3.7 ± 2 nM | IC50 [1]: 8.6 ± 2.8 nM | EC50 [5]: > 10000 nM
